ChEMBL document CHEMBL3297657, “Synthesis and antitumor activities of novel α-aminophosphonate derivatives containing an alizarin moiety” (Eur J Med Chem, 2014)
Active and inactive are the calls of the source. No cut-off for these calls is given here.

Columns and labels:
[1] = test system: NCI-H460; assay: Induction of apoptosis in human NCI-H460 cells assessed as early apoptotic cells at 10 uM after 24 hrs by Annexin V/propidium iodide staining-based flow cytometry (reference value: 6.8%); type: functional
[2] = test system: NCI-H460; assay: Induction of apoptosis in human NCI-H460 cells assessed as early apoptotic cells at 8 uM after 48 hrs by Annexin V/propidium iodide staining-based flow cytometry (reference value: 6.8%); type: functional
[3] = test system: NCI-H460; assay: Cell cycle arrest in human NCI-H460 cells assessed as accumulation at S phase at 5 uM after 48 hrs by Rnase A/propidium iodide staining-based flow cytometry (reference value: 19.41%); type: functional
[4] = test system: A549; assay: cells; conditions: Homo sapiens, A549, 48 h
Description: Cytotoxicity against human A549 cells after 48 hrs by MTT assay

[5] = test system: NCI-H460; assay: Induction of apoptosis in human NCI-H460 cells assessed as downregulation of Bcl-2 mRNA expression after 24 hrs by qRT-PCR analysis; type: functional, cell-based
[6] = test system: NCI-H460; assay: Induction of apoptosis in human NCI-H460 cells assessed as caspase-9 activation after 24 hrs by qRT-PCR analysis; type: functional, cell-based
[7] = test system: NCI-H460; assay: Induction of apoptosis in human NCI-H460 cells assessed as karyopyknosis and chromatin condensation at 8 uM after 12 to 48 hrs by Hoechst 33258 staining-based fluorescence microscopy relative to control; type: functional, cell-based
[8] = test system: NCI-H460; assay: Induction of apoptosis in human NCI-H460 cells assessed as change in mitochondrial membrane potential at 8 uM after 12 to 48 hrs by JC-1 staining-based fluorescence microscopy relative to control; type: functional, cell-based
[9] = test system: NCI-H460; assay: Induction of apoptosis in human NCI-H460 cells assessed as upregulation of AIF mRNA expression after 24 hrs by qRT-PCR analysis; type: functional, cell-based
[10] = test system: NCI-H460; assay: Induction of apoptosis in human NCI-H460 cells assessed as early apoptotic cells at 8 uM by Annexin V/propidium iodide staining-based flow cytometry; type: functional, cell-based; conditions: TDE = time-dependent effect
[11] = test system: CNE; assay: Cytotoxicity against human CNE cells after 48 hrs by MTT assay; type: functional, cell-based
[12] = test system: NCI-H460; assay: Induction of apoptosis in human NCI-H460 cells assessed as late apoptotic cells at 8 uM after 24 hrs by Annexin V/propidium iodide staining-based flow cytometry (reference value: 14.1%); type: functional
[13] = test system: NCI-H460; assay: Induction of apoptosis in human NCI-H460 cells assessed as viable cells at 20 uM after 24 hrs by Annexin V/propidium iodide staining-based flow cytometry (reference value: 72.2%); type: functional; conditions: NCI-H460, 24 h, read-out: Activity
[14] = test system: NCI-H460; assay: Induction of apoptosis in human NCI-H460 cells assessed as early apoptotic cells at 8 uM after 24 hrs by Annexin V/propidium iodide staining-based flow cytometry (reference value: 6.8%); type: functional
[15] = test system: NCI-H460; assay: Induction of apoptosis in human NCI-H460 cells assessed as necrotic cells after 24 hrs by Annexin V/propidium iodide staining-based flow cytometry; type: functional, cell-based
[16] = test system: NCI-H460; assay: Induction of apoptosis in human NCI-H460 cells assessed as upregulation of cytochrome C mRNA expression after 24 hrs by qRT-PCR analysis; type: functional, cell-based
[17] = test system: HCT-116; assay: cells; conditions: Homo sapiens, HCT-116, 48 h
Description: Cytotoxicity against human HCT116 cells after 48 hrs by MTT assay

[18] = test system: NCI-H460; assay: Cell cycle arrest in human NCI-H460 cells assessed as accumulation at G1 phase at 8 uM after 48 hrs by Rnase A/propidium iodide staining-based flow cytometry (reference value: 46.69%); type: functional
[19] = test system: NCI-H460; assay: Induction of apoptosis in human NCI-H460 cells assessed as late apoptotic cells at 5 uM after 24 hrs by Annexin V/propidium iodide staining-based flow cytometry (reference value: 14.1%); type: functional
[20] = test system: NCI-H460; assay: Induction of apoptosis in human NCI-H460 cells assessed as karyopyknosis and chromatin condensation after 24 hrs by Hoechst 33258 staining-based fluorescence microscopy relative to control; type: functional, cell-based
[21] = test system: NCI-H460; assay: Induction of apoptosis in human NCI-H460 cells assessed as change in mitochondrial membrane potential after 24 hrs by JC-1 staining-based fluorescence microscopy relative to control; type: functional, cell-based
[22] = test system: NCI-H460; assay: Cell cycle arrest in human NCI-H460 cells assessed as accumulation at G2 phase at 5 uM after 48 hrs by Rnase A/propidium iodide staining-based flow cytometry (reference value: 33.9%); type: functional
[23] = test system: NCI-H460; assay: Induction of apoptosis in human NCI-H460 cells assessed as late apoptotic cells after 24 hrs by Annexin V/propidium iodide staining-based flow cytometry; type: functional, cell-based
[24] = test system: MGC-803; assay: Cytotoxicity against human MGC803 cells after 48 hrs by MTT assay; type: functional, cell-based; conditions: MGC-803, 48 h
[25] = test system: NCI-H460; assay: Induction of apoptosis in human NCI-H460 cells assessed as late apoptotic cells at 8 uM by Annexin V/propidium iodide staining-based flow cytometry; type: functional, cell-based; conditions: TDE = time-dependent effect
[26] = test system: NCI-H460; assay: Induction of apoptosis in human NCI-H460 cells assessed as karyopyknosis and chromatin condensation at 8 uM by Hoechst 33258 staining-based fluorescence microscopy relative to control; type: functional, cell-based; conditions: TDE = time-dependent effect
[27] = test system: NCI-H460; assay: Cell cycle arrest in human NCI-H460 cells assessed as accumulation at G2 phase at 8 uM after 48 hrs by Rnase A/propidium iodide staining-based flow cytometry (reference value: 33.9%); type: functional
[28] = test system: NCI-H460; assay: Induction of apoptosis in human NCI-H460 cells assessed as increase in intracellular ROS generation at 5 to 20 uM after 24 hrs by DCFH-DA staining-based fluorescence microscopy; type: functional, cell-based
[29] = test system: NCI-H460; assay: Induction of apoptosis in human NCI-H460 cells assessed as early apoptotic cells after 24 hrs by Annexin V/propidium iodide staining-based flow cytometry; type: functional, cell-based
[30] = test system: NCI-H460; assay: Induction of apoptosis in human NCI-H460 cells assessed as late apoptotic cells at 20 uM after 24 hrs by Annexin V/propidium iodide staining-based flow cytometry (reference value: 14.1%); type: functional
[31] = test system: NCI-H460; assay: Induction of apoptosis in human NCI-H460 cells assessed as necrotic cells at 8 uM after 24 hrs by Annexin V/propidium iodide staining-based flow cytometry (reference value: 6.9%); type: functional
[32] = test system: NCI-H460; assay: Cell cycle arrest in human NCI-H460 cells assessed as accumulation at S phase at 8 uM after 24 hrs by Rnase A/propidium iodide staining-based flow cytometry (reference value: 19.41%); type: functional
[33] = test system: NCI-H460; assay: Cell cycle arrest in human NCI-H460 cells assessed as accumulation at G1 phase at 8 uM after 12 hrs by Rnase A/propidium iodide staining-based flow cytometry (reference value: 46.69%); type: functional
[34] = test system: NCI-H460; assay: Induction of apoptosis in human NCI-H460 cells assessed as late apoptotic cells at 10 uM after 24 hrs by Annexin V/propidium iodide staining-based flow cytometry (reference value: 14.1%); type: functional
[35] = test system: NCI-H460; assay: Cytotoxicity against human NCI-H460 cells after 48 hrs by MTT assay; type: functional, cell-based; conditions: NCI-H460, 48 h
[36] = test system: NCI-H460; assay: Cell cycle arrest in human NCI-H460 cells assessed as accumulation at G2 phase at 8 uM after 24 hrs by Rnase A/propidium iodide staining-based flow cytometry (reference value: 33.9%); type: functional
[37] = test system: NCI-H460; assay: Induction of apoptosis in human NCI-H460 cells assessed as necrotic cells at 20 uM after 24 hrs by Annexin V/propidium iodide staining-based flow cytometry (reference value: 6.9%); type: functional
[38] = test system: NCI-H460; assay: Induction of apoptosis in human NCI-H460 cells assessed as early apoptotic cells at 20 uM after 24 hrs by Annexin V/propidium iodide staining-based flow cytometry (reference value: 6.8%); type: functional

CCOP(=O)(OCC)C(NC(=O)C(C)Oc1ccc2c(c1O)C(=O)c1ccccc1C2=O)c1cccc2ccccc12 (stereo unspecified)
Activity [1]: 35.7% | Activity [2]: 54.9% | Activity [3]: 17.02% | IC50 [4]: 15.9 µM | Activity [5]: Dose-dependent effect | Activity [6]: Dose-dependent effect | Activity [7]: Active | Activity [8]: Active | Activity [9]: Dose-dependent effect | Activity [10]: tde | IC50 [11]: > 50 µM | Activity [12]: 13.5% | viability at 20 µM [13]: 43.4% | Activity [14]: 36.6% | Activity [15]: Dose-dependent effect | Activity [16]: Dose-dependent effect | IC50 [17]: 40 µM | Activity [18]: 68.09% | Activity [19]: 16.3% | Activity [20]: Dose-dependent effect | Activity [21]: Dose-dependent effect | Activity [22]: 25.78% | Activity [23]: Dose-dependent effect | IC50 [24]: 3.77 µM | Activity [25]: tde | Activity [26]: tde | Activity [27]: 31.5% | Activity [28]: Active | Activity [29]: Dose-dependent effect | Activity [30]: 16.4% | Activity [31]: 2.4% | Activity [32]: 1.11% | Activity [33]: 65.57% | Activity [34]: 18.6% | IC50 [35]: 6.83 µM | Activity [36]: 32.56% | Activity [37]: 1.4% | Activity [38]: 38.8%

CCOP(=O)(OCC)C(NC(=O)C(C)Oc1ccc2c(c1O)C(=O)c1ccccc1C2=O)c1ccccc1F (stereo unspecified)
Activity [1]: 56.3% | Activity [2]: 56.4% | Activity [3]: 12.34% | IC50 [4]: 6.76 µM | Activity [5]: Dose-dependent effect | Activity [6]: Dose-dependent effect | Activity [7]: Active | Activity [8]: Active | Activity [9]: Dose-dependent effect | Activity [10]: tde | IC50 [11]: 30.2 µM | Activity [12]: 13% | viability at 20 µM [13]: 33.6% | Activity [14]: 38.8% | Activity [15]: Dose-dependent effect | Activity [16]: Dose-dependent effect | IC50 [17]: 13.3 µM | Activity [18]: 65.52% | Activity [19]: 9.2% | Activity [20]: Dose-dependent effect | Activity [21]: Dose-dependent effect | Activity [22]: 23.14% | Activity [23]: Dose-dependent effect | IC50 [24]: 18.8 µM | Activity [25]: tde | Activity [26]: tde | Activity [27]: 23.61% | Activity [28]: Active | Activity [29]: Dose-dependent effect | Activity [30]: 9.8% | Activity [31]: 1.9% | Activity [32]: 16.3% | Activity [33]: 55.78% | Activity [34]: 6.8% | IC50 [35]: 3.8 µM | Activity [36]: 23.05% | Activity [37]: 1.4% | Activity [38]: 55.1%
